Patent US20080312160A1, “METHOD OF TREATING ENTERITIS, […], AND DIARRHEA FROM C. DIFFICILE WITH AN A2A ADENOSINE RECEPTOR AGONIST” (priority 2007, published 2008)

Assays:
[1] = tested on: murine ileal loops injected with Clostridium difficile toxin A (TxA); test: TxA-induced enteritis in ligated murine ileal loops: loop weight and secretion volume; type: in vivo, mice
Procedure: For this study, 174 male Swiss mice, 25-30 g body weight, from the animal colony of the Federal University of Ceara were used. The animals received water and food ad libitum.
(§1) Mice were fasted overnight, but allowed access to water, and then anesthetized with ketamine and xylazine (60 and 5 mg/Kg intramuscularly, respectively). Through a midline laparotomy, one 4-cm ileal loop was ligated and injected with either 0.1 ml of PBS pH 7.4 (control) or buffer containing TxA (1-10 μg). The abdomen was closed, and the animals were allowed to regain consciousness. Three hours after administration of TxA, mice were sacrificed and the intestinal loops were removed. The loop length, weight, and fluid volume were recorded. A portion of the loop was frozen at −70° C. for measurement of myeloperoxidase (MPO) and ADA activities and TNF-α concentration. The remaining tissue was fixed in 10% formalin and embedded in paraffin, and sections were stained with hematoxylin and eosin for histological grading of ileal inflammation. Some mice were injected with ATL 313 ([…] final concentration) immediately followed by PBS or TxA (5 μg); another group was injected with ZM241385 (5 nM), the selective A2A AR antagonist, immediately followed by PBS or ATL 313 (5 nM)+TxA (5 μg) in the ileal loop. In another experiment, TxA (5 μg) was injected into the ileal loop, the abdomen was closed, and, 30 min later, the abdomen was reopened and ATL 313 (5 nM) administered.

[2] = tested on: Clostridium difficile toxin A-induced ADA activity; test: ADA activity in ileal tissue and ileal secretion; type: in vivo, mice; settings: ATL 313 in TxA-challenged animals
Procedure: Mice were fasted overnight, but allowed access to water, and then anesthetized with ketamine and xylazine (60 and 5 mg/Kg intramuscularly, respectively). Through a midline laparotomy, one 4-cm ileal loop was ligated and injected with either 0.1 ml of PBS pH 7.4 (control) or buffer containing TxA (1-10 μg). The abdomen was closed, and the animals were allowed to regain consciousness. Three hours after administration of TxA, mice were sacrificed and the intestinal loops were removed. The loop length, weight, and fluid volume were recorded. A portion of the loop was frozen at −70° C. for measurement of myeloperoxidase (MPO) and ADA activities and TNF-α concentration. […]
The ADA assay is based on the measurement of ammonia produced during the deamination of adenosine by the method of Giusti (1974. Adenosine deaminase, p. 1092-1099. In H. U. Bergmeyer (Ed.), Methods of Enzymatic Analysis, vol. 2. Academic Press Inc., New York), with slight modifications. […] Following the addition of 600 μl of sodium hypochloride (11 mM) in 125 mM NaOH all tubes were again incubated at 37° C. for 30 min and read at 628 nm. The enzyme activity in the tissue and in the ileum contents was expressed as μmols of ammonium formed/mg of protein/hour and as μmols of ammonium formed/hour, respectively.

[3] = tested on: C. difficile toxin A-induced inflammation and secretion in rabbit ileal loops; type: in vivo, New Zealand white rabbits; settings: ATL 313 100 nM with alanyl-glutamine 25 mM; 5 hours
Procedure: Materials and Methods: New Zealand white rabbits weighing about 2 kg are fasted overnight. Under anesthesia with ketamine (60-80 mg/kg) and xylazine (5-10 mg/kg) administered intramuscularly, a midline abdominal incision is performed to expose the small bowel. After the ileum is flushed, four-cm loops are ligated using double ties with a 1 cm interval between loops. Each of the control loops is injected intraluminally with 1 mL solution of PBS with either C. difficile toxin A (toxin A) (Techlab, Blacksburg, Va.) at 10 μg/mL. Loops from another set of rabbits are treated with the adenosine A2A agonists, JMR 193 (ATL 193) (10 nM, 100 nM, or 1 uM doses) or ATL 146e ([…], 100 nM, 1 uM doses) immediately before the enterotoxin is administered. In addition a rabbit is treated with A2A agonist, ATL 313 (100 nM), alone and another rabbit treated with ATL 313 with alanyl-glutamine (25 mM). After 5 hours of incubation, the ligated small intestinal loops are removed. The length of each ligated ileal segment is measured and intraluminal fluid was quantified. Volume to length ratio, V/L (mL/cm), per loop is calculated. Samples of intestinal stained with hematoxylin-eosin and graded from 0 (none) to 4 (worst) based on the degree of mucosal disruption, increase in cellularity and intensity of vascular congestion.

[4] = tested on: Clostridium difficile toxin A (TxA)-induced histological alterations; test: Histological grading of ileal inflammation, murine ileal loops; type: in vivo, mice; settings: for median injury score: median(range)
Procedure: as §1
The severity of inflammation was scored in coded slides by a pathologist on a scale of 1 (mild) to 3 (severe) for epithelial damage, edema, and neutrophil infiltration.

[5] = tested on: Clostridium difficile toxin A (TxA)-induced cell death; test: Cell death in intestinal sections (TUNEL method); type: in vivo, mice; settings: ATL 313 + TxA
Procedure: as §1, with “administered. […]” for “administered.”

[6] = tested on: Clostridium difficile toxin A-induced MPO activity; test: MPO assay in ileal tissue (neutrophil accumulation); type: in vivo, mice
Procedure: as §1, with “In another experiment, TxA (5 μg) was injected into the ileal loop, the abdomen was closed, and, 30 min later, the abdomen was reopened and ATL 313 (5 nM) administered.” left out
The extent of neutrophil accumulation in ileal tissue was estimated by measuring MPO activity assay. […] MPO activity in the resuspended pellet was assayed by measuring the change in absorbance at 450 nm using o-dianisidine dihydrochloride and 1% hydrogen peroxide. […]

[7] = tested on: Clostridium difficile toxin A-induced TNF-α production; test: Quantification of TNF-α by ELISA in ileal tissue; type: in vivo, mice; settings: ATL 313 + TxA vs TxA only
Procedure: as §1, with “In another experiment, TxA (5 μg) was injected into the ileal loop, the abdomen was closed, and, 30 min later, the abdomen was reopened and ATL 313 (5 nM) administered.” left out
Ileal tissue was harvested from animals in order to measure TNF-α concentration by enzyme-linked immunosorbent assay (ELISA). The results are expressed as pg/mL of TNF-α.

[8] = ATL 313 5 nM alone, absence of TxA
[9] = ATL 313 5 nM in loop immediately followed by TxA 5 μg, 3 h, vs TxA alone

COC(=O)N1CCC(CC#Cc2nc(N)c3ncn(C4OC(C(=O)NC5CC5)C(O)C4O)c3n2)CC1 (stereo not shown) [ATL 313, 4-{3-[6-Amino-9-(5-cyclopropylcarbamoyl-3,4-dihydroxy-tetrahydro-furan-2-yl)-9H-purin-2-yl]-prop-2-ynyl}-piperidine-1-carboxylic acid methyl ester]
secretion volume/ileal loop length ratio [1, 8]: did not alter
weight/ileal loop length ratio [1, 8]: did not alter
weight/ileal loop length ratio ([1]; ATL 313 5 nM given 30 min after TxA 5 μg): 28.3 ± 1.4 mg/cm
secretion volume/ileal loop length ratio [1, 9]: significantly (P<0.05) reduced
weight/ileal loop length ratio [1, 9]: significantly (P<0.05) reduced
ADA activity in ileal secretion [2]: significantly reduced (P<0.05)
ADA activity in ileal tissue [2]: significantly reduced (P<0.05)
toxin A-induced inflammation [3]: improved inflammation
toxin A-induced secretion (volume to length ratio) [3]: dramatically improved secretion
histological injury score ([4]; ATL 313 30 min after injection of TxA 5 μg): 1(0-2)
median injury score ([4]; ATL 313 + TxA 5 μg/loop): 1(0-2)
median injury score ([4]; compound alone, no TxA): 0(0-0)
mucosal cell death [5]: reduced number for cell death similar to the level of PBS control
MPO activity in ileal tissue ([6]; ATL 313 5 nM alone, PBS=1.6±0.6): 2.1±0.2 U/mg
MPO activity in ileal tissue ([6]; ATL 313 5 nM then TxA 5 μg): 1.0±0.6 U/mg
TNF-α production in ileal tissue [7]: significantly reduced (P<0.05)
